Data taken from ChEMBL document CHEMBL3885861, “Open TG-GATES”.

Species on record: Rattus norvegicus
Assay: Open TG-GATES - Regimen: Daily Repeat
Type: toxicity, organism-based, Sprague-Dawley
Parameters: regimen Daily Repeat, gender Male, age 6 weeks
Conditions: in vivo, po, route gavage; for APTT / Bas / Eos / Fbg / Ht / Lym / MCH / MCHC / MCV / Mono / Neu / Plat / RBC / Ret / WBC: tissue Blood; for ALP / ALT / AST / BUN / CRE / DBIL / GLC / IP / K / LDH / Na / PL / RALB / TBIL / TC / TG / TP / gamma-GTP: tissue Plasma
[1] = 0 mg/kg, 72 h, dose level Control, time 3 day
[2] = 0 mg/kg, […], dose level Control, time 7 day
[3] = 0 mg/kg, […], dose level Control, time 14 day
[4] = 0 mg/kg, […], dose level Control, time 28 day
[5] = 45 mg/kg, 72 h, dose level Low, time 3 day
[6] = 45 mg/kg, […], dose level Low, time 7 day
[7] = 45 mg/kg, […], dose level Low, time 14 day
[8] = 45 mg/kg, […], dose level Low, time 28 day

CCCC(CCC)C(=O)O [VALPROIC ACID]
TERMINAL_BW [1]: 222 g | APTT [1]: 18.8 s | Bas [1]: 0% | Eos [1]: 1% | Fbg [1]: 222.8 mg/dL | Ht [1]: 37.7% | Lym [1]: 82.2% | MCH [1]: 21.3 pg | MCHC [1]: 34.2% | MCV [1]: 62.3 fL | Mono [1]: 3.4% | Neu [1]: 12.8% | Plat [1]: 135 x10_4/uL | RBC [1]: 604.8 x10_4/ul | Ret [1]: 6.6% | WBC [1]: 101 x10_2/uL | ALP [1]: 1099.6 IU/L | ALT [1]: 35.6 IU/L | AST [1]: 65.4 IU/L | BUN [1]: 16.2 mg/dL | CRE [1]: 0.4 mg/dL | DBIL [1]: 0.062 mg/dL | GLC [1]: 216.2 mg/dL | IP [1]: 8 mg/dL | K [1]: 4.1 meq/L | LDH [1]: 206.6 IU/L | Na [1]: 140.8 meq/L | PL [1]: 145.2 mg/dL | RALB [1]: 3.3 g/dL | TBIL [1]: 0.1 mg/dL | TC [1]: 71.6 mg/dL | TG [1]: 84.6 mg/dL | TP [1]: 5.4 g/dL | gamma-GTP [1]: 0.8 IU/L | TERMINAL_BW [2]: 256.3 g | TERMINAL_BW [3]: 316.1 g | TERMINAL_BW [4]: 396.1 g | APTT [2]: 19.2 s | Bas [2]: 0% | Eos [2]: 1% | Fbg [2]: 210.8 mg/dL | Ht [2]: 40.7% | Lym [2]: 83.8% | MCH [2]: 21.2 pg | MCHC [2]: 34.3% | MCV [2]: 61.9 fL | Mono [2]: 2.6% | Neu [2]: 12.4% | Plat [2]: 132.8 x10_4/uL | RBC [2]: 658.4 x10_4/ul | Ret [2]: 5.8% | WBC [2]: 96.1 x10_2/uL | APTT [3]: 18.3 s | Bas [3]: 0% | Eos [3]: 1% | Fbg [3]: 228.2 mg/dL | Ht [3]: 40.9% | Lym [3]: 78.6% | MCH [3]: 20.7 pg | MCHC [3]: 35.2% | MCV [3]: 58.9 fL | Mono [3]: 2.4% | Neu [3]: 17.6% | Plat [3]: 140.4 x10_4/uL | RBC [3]: 695 x10_4/ul | Ret [3]: 4.7% | WBC [3]: 114.6 x10_2/uL | APTT [4]: 19.4 s | Bas [4]: 0% | Eos [4]: 1% | Fbg [4]: 227.8 mg/dL | Ht [4]: 42.7% | Lym [4]: 83% | MCH [4]: 19.2 pg | MCHC [4]: 34.9% | MCV [4]: 55.1 fL | Mono [4]: 2.2% | Neu [4]: 12.8% | Plat [4]: 108.4 x10_4/uL | RBC [4]: 775.4 x10_4/ul | Ret [4]: 2.6% | WBC [4]: 129.7 x10_2/uL | ALP [2]: 909.6 IU/L | ALT [2]: 33.6 IU/L | AST [2]: 66 IU/L | BUN [2]: 17.2 mg/dL | CRE [2]: 0.4 mg/dL | DBIL [2]: 0.08 mg/dL | GLC [2]: 223.2 mg/dL | IP [2]: 8 mg/dL | K [2]: 3.8 meq/L | LDH [2]: 199.6 IU/L | Na [2]: 141 meq/L | PL [2]: 146.2 mg/dL | RALB [2]: 3.4 g/dL | TBIL [2]: 0.1 mg/dL | TC [2]: 68.8 mg/dL | TG [2]: 106.4 mg/dL | TP [2]: 5.5 g/dL | gamma-GTP [2]: 1.2 IU/L | ALP [3]: 946.4 IU/L | ALT [3]: 34.8 IU/L | AST [3]: 64.4 IU/L | BUN [3]: 19 mg/dL | CRE [3]: 0.4 mg/dL | DBIL [3]: 0.098 mg/dL | GLC [3]: 231.4 mg/dL | IP [3]: 7.1 mg/dL | K [3]: 3.6 meq/L | LDH [3]: 198.8 IU/L | Na [3]: 140.6 meq/L | PL [3]: 166 mg/dL | RALB [3]: 3.5 g/dL | TBIL [3]: 0.1 mg/dL | TC [3]: 77 mg/dL | TG [3]: 137.2 mg/dL | TP [3]: 5.9 g/dL | gamma-GTP [3]: 1.2 IU/L | ALP [4]: 657.8 IU/L | ALT [4]: 34.8 IU/L | AST [4]: 64.4 IU/L | BUN [4]: 17.6 mg/dL | CRE [4]: 0.5 mg/dL | DBIL [4]: 0.088 mg/dL | GLC [4]: 208.8 mg/dL | IP [4]: 6.9 mg/dL | K [4]: 3.9 meq/L | LDH [4]: 175.2 IU/L | Na [4]: 140.2 meq/L | PL [4]: 150.6 mg/dL | RALB [4]: 3.5 g/dL | TBIL [4]: 0.1 mg/dL | TC [4]: 66.4 mg/dL | TG [4]: 155 mg/dL | TP [4]: 6.1 g/dL | gamma-GTP [4]: 1 IU/L | TERMINAL_BW [5]: 226.4 g | APTT [5]: 18.3 s | Bas [5]: 0% | Eos [5]: 1% | Fbg [5]: 221.6 mg/dL | Ht [5]: 38.6% | Lym [5]: 78% | MCH [5]: 21.7 pg | MCHC [5]: 34.2% | MCV [5]: 63.3 fL | Mono [5]: 3.4% | Neu [5]: 17% | Plat [5]: 137.5 x10_4/uL | RBC [5]: 609.4 x10_4/ul | Ret [5]: 7.3% | WBC [5]: 105.8 x10_2/uL | ALP [5]: 892.6 IU/L | ALT [5]: 36 IU/L | AST [5]: 69 IU/L | BUN [5]: 15.4 mg/dL | CRE [5]: 0.4 mg/dL | DBIL [5]: 0.076 mg/dL | GLC [5]: 210.4 mg/dL | IP [5]: 8.7 mg/dL | K [5]: 4 meq/L | LDH [5]: 217.4 IU/L | Na [5]: 140.8 meq/L | PL [5]: 160.4 mg/dL | RALB [5]: 3.4 g/dL | TBIL [5]: 0.1 mg/dL | TC [5]: 78.4 mg/dL | TG [5]: 84.2 mg/dL | TP [5]: 5.5 g/dL | gamma-GTP [5]: 1.4 IU/L | TERMINAL_BW [6]: 255.3 g | TERMINAL_BW [7]: 314.8 g | TERMINAL_BW [8]: 407 g | APTT [6]: 19 s | Bas [6]: 0% | Eos [6]: 1% | Fbg [6]: 211.6 mg/dL | Ht [6]: 40.1% | Lym [6]: 82.6% | MCH [6]: 21.3 pg | MCHC [6]: 34.4% | MCV [6]: 62 fL | Mono [6]: 3% | Neu [6]: 12.8% | Plat [6]: 133.3 x10_4/uL | RBC [6]: 647.4 x10_4/ul | Ret [6]: 5.7% | WBC [6]: 143.8 x10_2/uL | APTT [7]: 18.3 s | Bas [7]: 0% | Eos [7]: 1% | Fbg [7]: 229.2 mg/dL | Ht [7]: 41.1% | Lym [7]: 83.8% | MCH [7]: 20.7 pg | MCHC [7]: 35% | MCV [7]: 59.1 fL | Mono [7]: 2.6% | Neu [7]: 12.2% | Plat [7]: 130 x10_4/uL | RBC [7]: 695.4 x10_4/ul | Ret [7]: 4.7% | WBC [7]: 113.4 x10_2/uL | APTT [8]: 19.9 s | Bas [8]: 0% | Eos [8]: 1.4% | Fbg [8]: 214.2 mg/dL | Ht [8]: 42.1% | Lym [8]: 82.8% | MCH [8]: 19.6 pg | MCHC [8]: 35.1% | MCV [8]: 55.8 fL | Mono [8]: 2% | Neu [8]: 13.2% | Plat [8]: 112.1 x10_4/uL | RBC [8]: 755.6 x10_4/ul | Ret [8]: 2.7% | WBC [8]: 101.3 x10_2/uL | ALP [6]: 833.2 IU/L | ALT [6]: 35.2 IU/L | AST [6]: 65.6 IU/L | BUN [6]: 16.2 mg/dL | CRE [6]: 0.4 mg/dL | DBIL [6]: 0.084 mg/dL | GLC [6]: 219.6 mg/dL | IP [6]: 8.2 mg/dL | K [6]: 3.7 meq/L | LDH [6]: 193.8 IU/L | Na [6]: 140.2 meq/L | PL [6]: 143.4 mg/dL | RALB [6]: 3.4 g/dL | TBIL [6]: 0.1 mg/dL | TC [6]: 73.2 mg/dL | TG [6]: 86.4 mg/dL | TP [6]: 5.6 g/dL | gamma-GTP [6]: 1.6 IU/L | ALP [7]: 914.4 IU/L | ALT [7]: 34.8 IU/L | AST [7]: 65.8 IU/L | BUN [7]: 17.2 mg/dL | CRE [7]: 0.4 mg/dL | DBIL [7]: 0.086 mg/dL | GLC [7]: 234 mg/dL | IP [7]: 7.5 mg/dL | K [7]: 4 meq/L | LDH [7]: 192 IU/L | Na [7]: 141.2 meq/L | PL [7]: 151.2 mg/dL | RALB [7]: 3.3 g/dL | TBIL [7]: 0.1 mg/dL | TC [7]: 74.4 mg/dL | TG [7]: 106 mg/dL | TP [7]: 5.8 g/dL | gamma-GTP [7]: 0.8 IU/L | ALP [8]: 660.2 IU/L | ALT [8]: 37.4 IU/L | AST [8]: 65 IU/L | BUN [8]: 19 mg/dL | CRE [8]: 0.4 mg/dL | DBIL [8]: 0.1 mg/dL | GLC [8]: 200 mg/dL | IP [8]: 6.8 mg/dL | K [8]: 3.8 meq/L | LDH [8]: 168.2 IU/L | Na [8]: 141.4 meq/L | PL [8]: 147.2 mg/dL | RALB [8]: 3.4 g/dL | TBIL [8]: 0.2 mg/dL | TC [8]: 63.8 mg/dL | TG [8]: 158.4 mg/dL
